Assay results: US20030232986A1, “Inhibitors of caspases” (Vertex Pharmaceuticals Incorporated, priority 1998, published 2003)
Like-named read-outs stand apart in the source and are kept apart here. Where a SMILES comes first, the peptide text is derived from it. The star is where a group is joined. Bz = O=C(c1ccccc1)*

What was measured:
[1] = biological target: T1, Caspase-1 (Homo sapiens, UniProt P29466); assay: Caspase-1 enzyme inhibition (Ki); assay type: biochemical
T1 sequence (P29466 120-297 limits assumed): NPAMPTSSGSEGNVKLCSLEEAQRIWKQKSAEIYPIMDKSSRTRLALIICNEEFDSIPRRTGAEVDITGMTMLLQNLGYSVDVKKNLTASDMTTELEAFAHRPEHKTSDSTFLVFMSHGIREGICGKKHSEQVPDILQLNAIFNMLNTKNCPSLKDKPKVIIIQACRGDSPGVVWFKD
T1 sequence (P29466 317-404 limits assumed): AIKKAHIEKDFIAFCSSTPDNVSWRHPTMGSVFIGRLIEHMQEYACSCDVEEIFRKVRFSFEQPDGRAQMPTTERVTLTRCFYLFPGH
Procedure, shortened: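 Ki obtained by fitting rate versus inhibitor concentration to the Morrison tight-binding equation for competitive inhibitors, with pNA release read at 405 nm at 37 °C. Substrate Suc-YVAD-pNA (80 μM final) added after 15 min enzyme–inhibitor preincubation in Tris pH 7.5 buffer with DTT and CHAPS.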

[2] = system: Human Peripheral Blood Mononuclear Cells (PBMC), mature IL-1β; assay: PBMC cell assay: IL-1β assay with human peripheral blood mononuclear cells; assay type: cell-based; settings: LPS-stimulated human PBMC, mature IL-1β in supernatant by ELISA
Procedure, shortened: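 Donor PBMC (suspension at 6×10^6 cells/ml) or adherent-enriched monocytes were stimulated with 5 ng/ml LPS (final) alongside 5–6 compound dilutions bracketing the ICE Ki, at 0.1% DMSO final, for 16–18 hr at 37° C, 5% CO2. Mature IL-1β in supernatants was measured by ELISA; IC50 was calculated relative to LPS-only controls.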

[3] = substrate Suc-YVAD-pNA 80 μM, 37° C., pH 7.5

COCC(=O)N1CCN(C(=O)[C@H](C)NC(=O)c2ccc(N)c(Cl)c2)[C@H](C(=O)N[C@H](C=O)CC(=O)O)C1 [Example 18f]
Ki [1, 3]: 10 to 1000 nM
IC50 [2]: > 2000 nM

CC(C)[C@H](NC(=O)c1nccc2ccccc12)C(=O)N1CCC[C@H]1C(=O)N[C@H](C=O)CC(=O)O [Example 5c]
Ki [1, 3]: < 10 nM
IC50 [2]: 500 to 1000 nM

CC(=O)Nc1ccc(C(=O)N[C@@H](C)C(=O)N2CCC[C@H]2C(=O)N[C@H](C=O)CC(=O)O)cc1Cl [Example 122f, 3-({1-[2-(4-Acetylamino-3-chloro-benzoylamino)-propionyl]-pyrrolidine-2-carbonyl}-amino)-4-oxo-butyric acid]
Ki [1, 3]: < 10 nM
IC50 [2]: 500 to 1000 nM

C[C@H](NC(=O)c1ccc(N)c(Cl)c1)C(=O)N1CC(F)(F)C[C@H]1C(=O)N[C@H](C=O)CC(=O)O [Example 27a]
Ki [1, 3]: 10 to 1000 nM
IC50 [2]: < 500 nM

Cc1cc(C(=O)N[C@H](C(=O)N2CCCC2C(=O)N[C@H](C=O)CC(=O)O)C(C)C)cc(C)c1O (stereo partly drawn) [Example 65, 3-({l-[2-(4-Hydroxy-3,5-dimethyl-benzoyiamino)-3-methyl-butyryl]-pyrrolidine-2-carbonyl}-amino)-4-oxo-butyric acid]
Ki [1, 3]: < 10 nM
IC50 [2]: 500 to 1000 nM

COc1ccc(C(=O)NC(C(=O)N2CCCC2C(=O)NC(C=O)CC(=O)O)C(C)(C)C)cc1 (stereo not drawn) [Example 69, 3-({1-[2-(4-Methoxy-benzoylamino)-3,3-dimethyl-butyryl]-pyrrolidine-2-carbonyl}-amino)-4-oxo-butyric acid]
Ki [1, 3]: < 10 nM
IC50 [2]: < 500 nM

COc1ccc(C(=O)NC(C(=O)N2N=C(C(C)(C)C)SC2C(=O)NC(C=O)CC(=O)O)C(C)C)cc1 (stereo not drawn) [Example 46b]
Ki [1, 3]: < 10 nM
IC50 [2]: > 2000 nM

CC(C)[C@H](NC(=O)c1cc(Cl)c(O)c(Cl)c1)C(=O)N1CCC[C@H]1C(=O)N[C@H](C=O)CC(=O)O [Example 5m]
Ki [1]: < 10 nM
Ki [1, 3]: < 10 nM
IC50 [2]: < 500 nM

Cc1cc(C(=O)N[C@@H](C)C(=O)N2CCC[C@H]2C(=O)N[C@H](C=O)CC(=O)O)cc(C)c1O [Example 7c]
Ki [1, 3]: < 10 nM
IC50 [2]: < 500 nM

C[C@H](NC(=O)c1cccc2c1-c1ccccc1C2=O)C(=O)N1CCC[C@H]1C(=O)N[C@H](C=O)CC(=O)O [Example 122a]
Ki [1, 3]: < 10 nM
IC50 [2]: > 2000 nM

CSC[C@H](NC(=O)c1nccc2ccccc12)C(=O)N1CCC[C@H]1C(=O)N[C@H](C=O)CC(=O)O [Example 20g]
Ki [1, 3]: < 10 nM
IC50 [2]: < 500 nM

COc1ccc(C(=O)N[C@@H](C)C(=O)N2CCC[C@H]2C(=O)N[C@H](C=O)CC(=O)O)cc1 [Example 7f]
Ki [1, 3]: 10 to 1000 nM
IC50 [2]: > 2000 nM

C[C@H](NC(=O)c1ccc(N)c(Cl)c1)C(=O)N1CCC[C@H]1C(=O)N[C@H](C=O)CC(=O)O [Example 122b, 3-({-[2-(4-Amino-3-chloro-benzoylamino)-propionyl]-pyrrolidine-2-carbonyl}-amino)-4-oxo-butyric acid]
Ki [1, 3]: < 10 nM
IC50 [2]: 500 to 1000 nM

COc1ccc(C(=O)NC(C(=O)N2CCCC2C(=O)NC(C=O)CC(=O)O)C(C)C)cc1 (stereo not drawn) [Example 57, 3-({1-[2-(4-Methoxy-benzoylamino)-3-methyl-butyryl]-pyrrolidine-2-carbonyl}-amino)-4-oxo-butyric acid]
Ki [1, 3]: < 10 nM
IC50 [2]: 500 to 1000 nM

COc1c(Cl)cc(C(=O)N[C@@H](C)C(=O)N2CCC[C@H]2C(=O)N[C@H](C=O)CC(=O)O)cc1Cl [Example 122c, 3-({1-[2-(3,5-Dichloro-4-methoxy-benzoylamino)-propionyl]-pyrrolidine-2-carbonyl}-amino)-4-oxo-butyric acid]
Ki [1, 3]: < 10 nM
IC50 [2]: > 2000 nM

CC(C)[C@H](NC(=O)c1cccc2c1-c1ccccc1C2=O)C(=O)N1CCC[C@H]1C(=O)N[C@H](C=O)CC(=O)O [Example 5k]
Ki [1]: < 10 nM
Ki [1, 3]: < 10 nM
IC50 [2]: > 2000 nM

CC[C@H](NC(=O)c1cc(Cl)c(O)c(Cl)c1)C(=O)N1CCC[C@H]1C(=O)N[C@H](C=O)CC(=O)O [Example 20m]
Ki [1, 3]: < 10 nM
IC50 [2]: 500 to 1000 nM

C[C@H](NC(=O)c1cc(Cl)c(O)c(Cl)c1)C(=O)N1CCC[C@H]1C(=O)N[C@H](C=O)CC(=O)O [Example 122k, 3-({1-[2-(3,5-Dichloro-4-hydroxy-benzoylamino)-propionyl]-pyrrolidine-2-carbonyl}-amino)-4-oxo-butyric acid]
Ki [1, 3]: < 10 nM
IC50 [2]: < 500 nM

O=C[C@H](CC(=O)O)NC(=O)[C@@H]1CCCN1C(=O)[C@H](Cc1cccnc1)NC(=O)c1nccc2ccccc12 [Example 20f]
Ki [1, 3]: < 10 nM
IC50 [2]: 500 to 1000 nM

COc1c(C)cc(C(=O)N[C@@H](C)C(=O)N2CCC[C@H]2C(=O)N[C@H](C=O)CC(=O)O)cc1C [Example 122d, 3-({1-[2-(4-Methoxy-3,5-dimethyl-benzoylamino)-propionyl]-pyrrolidine-2-carbonyl}-amino)-4-oxo-butyric acid]
Ki [1, 3]: < 10 nM
IC50 [2]: 500 to 1000 nM

C[C@H](NC(=O)[C@@H](NC(=O)c1nccc2ccccc12)C(C)(C)C)C(=O)N[C@H](C=O)CC(=O)O [Example 29g]
Ki [1, 3]: < 10 nM
IC50 [2]: 500 to 1000 nM

CC(C)[C@H](NC(=O)c1nccc2ccccc12)C(=O)N1CC(c2ccccc2)[C@H]1C(=O)N[C@H](C=O)CC(=O)O (stereo partly drawn) [Example 24c]
Ki [1, 3]: < 10 nM
IC50 [2]: < 500 nM

CS(=O)(=O)CC[C@H](NC(=O)c1nccc2ccccc12)C(=O)N1CCC[C@H]1C(=O)N[C@H](C=O)CC(=O)O [Example 20h]
Ki [1, 3]: < 10 nM
IC50 [2]: < 500 nM

C[C@H](NC(=O)c1nccc2ccccc12)C(=O)N1CCC[C@H]1C(=O)N[C@H](C=O)CC(=O)O [Example 7d]
Ki [1, 3]: < 10 nM
IC50 [2]: < 500 nM

CC(C)[C@H](NC(=O)c1nccc2ccccc12)C(=O)N1C2CCCCC2C[C@H]1C(=O)N[C@H](C=O)CC(=O)O (stereo partly drawn) [Example 26e]
Ki [1, 3]: < 10 nM
IC50 [2]: < 500 nM

CC(C)[C@H](NC(=O)c1ccccc1)C(=O)N1CC(c2ccccc2)[C@H]1C(=O)N[C@H](C=O)CC(=O)O (stereo partly drawn) [Example 24a]
Ki [1, 3]: < 10 nM
IC50 [2]: 500 to 1000 nM

CC(C)[C@H](NC(=O)c1nccc2ccccc12)C(=O)N1[C@@H](c2ccccc2)CC[C@H]1C(=O)N[C@H](C=O)CC(=O)O [Example 26f]
Ki [1, 3]: < 10 nM
IC50 [2]: < 500 nM

CC(C)[C@H](NC(=O)c1nccc2ccccc12)C(=O)N1CC[C@H](C)[C@H]1C(=O)N[C@H](C=O)CC(=O)O [Example 26c]
Ki [1, 3]: < 10 nM
IC50 [2]: 500 to 1000 nM

CC(C)[C@H](NC(=O)c1ccccc1)C(=O)N[C@@H](C)C(=O)N[C@H](C=O)CC(=O)O [Example 29a] (Bz-Val-Ala-Asp-aldehyde)
Ki [1, 3]: < 10 nM
IC50 [2]: < 500 nM
